This passage reports TGI results from PubChem BioAssay (NCI).

Usually TGI stands for the concentration at which net growth stops. Higher therefore signals less potent growth arrest.

Some test systems named below: HT29 colon; HCT-116 colon; RPMI-8226 leukemia; NCI-H23 lung; HL-60(TB) leukemia; U251 CNS; UACC-257 melanoma; SNB-75 CNS; NCI/ADR-RES ovarian; DU-145 prostate.
Common to all, as to experiment: DTP human tumour cell line panel, 48 h

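Where inhibition never reached the appropriate level, the endpoint shown equals the highest concentration tested. Otherwise, values were interpolated linearly from a five-concentration, 48-hour dose response in 96-well plates. At the TGI there is no net growth.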 A value given as a limit tells only on which side of the number the result lay.

On to `NC1(C(=O)O)CCCC1`, for which the TGI with HT29 colon, in the assay on HCT-116 colon, in the assay on RPMI-8226 leukemia, in the assay on NCI-H23 lung, with HL-60(TB) leukemia and with U251 CNS was over 625 µM throughout. In addition, the total growth inhibition concentration (TGI) in the assay on UACC-257 melanoma, in the assay with SNB-75 CNS and with NCI/ADR-RES ovarian was over 625 µM in each case.

Regarding `CCN(CC)CCCC(C)NC(=O)c1ccc2c(c1)C(=O)c1ccccc1C2=O` (stereo unspecified), the TGI with HT29 colon amounted to 53 µM; with HCT-116 colon, 51.7 µM; in the assay with RPMI-8226 leukemia, 52.4 µM; with NCI-H23 lung it was 24.2 µM; in the assay with HL-60(TB) leukemia it was 34.2 µM; in the assay on U251 CNS, 50.4 µM. The figures for the TGI in the assay with UACC-257 melanoma and in the assay with SNB-75 CNS were 26.1 µM and over 86.9 µM, respectively.

Turning to `O=C1c2ccccc2C(=O)c2c(O)ccc(O)c21`, the concentration for total growth inhibition (TGI) in the assay with HT29 colon, in the assay on HCT-116 colon, with RPMI-8226 leukemia, in the assay with NCI-H23 lung, in the assay with HL-60(TB) leukemia and with U251 CNS was over 100 µM each time. Besides, the TGI in the assay with UACC-257 melanoma and with SNB-75 CNS was over 100 µM in each case.

Consider `CC(Cc1ccccc1)NC1=NCCO1` (stereo unspecified), for which the TGI in the assay on HT29 colon was 40.3 µM; in the assay on HCT-116 colon, 32.4 µM; in the assay with RPMI-8226 leukemia it was 67.3 µM; in the assay with NCI-H23 lung, 51 µM; in the assay on U251 CNS it was 58 µM; in the assay on SNB-75 CNS it was over 100 µM.

For `CCCCCCC(C)OC(=O)/C=C(\CC(=O)OC(C)CCCCCC)C(=O)OC(C)CCCCCC` (stereo unspecified), the concentration for total growth inhibition (TGI) with HT29 colon, with HCT-116 colon, in the assay on RPMI-8226 leukemia, in the assay on NCI-H23 lung, with HL-60(TB) leukemia and with U251 CNS was over 100 µM throughout. Further, the TGI with UACC-257 melanoma and in the assay on SNB-75 CNS was over 100 µM each time.

As for `Clc1c(C(Cl)(Cl)Cl)nsc1N1CCCCC1`, the total growth inhibition concentration (TGI) in the assay with HT29 colon was 38.3 µM; with HCT-116 colon, 76.6 µM; with RPMI-8226 leukemia it was 40.9 µM; in the assay on NCI-H23 lung it was 34.7 µM; in the assay with HL-60(TB) leukemia, 48.2 µM; with U251 CNS, over 100 µM. The total growth inhibition concentration (TGI) with UACC-257 melanoma was 64.7 µM; with SNB-75 CNS, 81.8 µM; with DU-145 prostate, over 100 µM.

`NS(=O)(=O)c1nnc(NS(=O)(=O)c2ccccc2C(=O)O)s1`: the TGI with HT29 colon, in the assay on HCT-116 colon, with RPMI-8226 leukemia, in the assay on NCI-H23 lung, with U251 CNS and in the assay with UACC-257 melanoma was over 100 µM throughout. The TGI in the assay on DU-145 prostate and in the assay on NCI/ADR-RES ovarian was over 100 µM in each case.

Turning to `C=C1C(=O)O[C@@H]2[C@H](O)[C@@H](C)[C@@H]3C=CC(=O)[C@@]3(C)[C@H](OC(=O)C=C(C)C)[C@H]12`, the TGI was 3.82 µM in the assay on HT29 colon; 1.72 µM with HCT-116 colon; 0.975 µM with RPMI-8226 leukemia; 2.88 µM in the assay on NCI-H23 lung; 0.412 µM in the assay with HL-60(TB) leukemia; 3.5 µM in the assay on U251 CNS. Further, the TGI with UACC-257 melanoma turned out to be 4.74 µM; in the assay with SNB-75 CNS it was 7.86 µM; with NCI/ADR-RES ovarian it was 6.42 µM.

For the compound `O=[N+]([O-])c1ccc2c(c1)c(S(=O)(=O)O)cc1nonc12`, the TGI in the assay with HT29 colon, in the assay on HCT-116 colon, in the assay on RPMI-8226 leukemia, in the assay with NCI-H23 lung, with HL-60(TB) leukemia and in the assay with U251 CNS was over 100 µM in each case. Also, the concentration for total growth inhibition (TGI) with UACC-257 melanoma and in the assay on NCI/ADR-RES ovarian was over 100 µM throughout.

Turning to `O=C1CCCC2=C1CC1=C(CCCC1=O)N2c1ccccc1`, the TGI in the assay on HT29 colon, in the assay on RPMI-8226 leukemia, in the assay with NCI-H23 lung, in the assay with HL-60(TB) leukemia, in the assay on U251 CNS and with SNB-75 CNS was over 100 µM each time. The same compound showed a TGI in the assay with NCI/ADR-RES ovarian of over 100 µM.

Regarding `CC(=O)OCC1=C(C)C[C@H]([C@@H](COC(C)=O)C2CCC3C4C[C@H]5O[C@]56CC=CC(=O)[C@]6(C)C4CC[C@@]32C)OC1=O` (stereo partly specified), the TGI in the assay on HT29 colon is 0.508 µM; in the assay with HCT-116 colon, 0.3 µM; in the assay on RPMI-8226 leukemia, 0.181 µM; in the assay with NCI-H23 lung it was 3.59 µM; in the assay on HL-60(TB) leukemia, 0.198 µM; in the assay with U251 CNS, 1.05 µM. Moreover, the TGI in the assay on UACC-257 melanoma turned out to be 2.99 µM; with SNB-75 CNS it was 6.09 µM; in the assay with DU-145 prostate, 1.41 µM.

For the compound `CC(=O)OCC1OC(O/C=C(\CN=[N+]=[N-])C(C)=O)C(OC(C)=O)C(OC(C)=O)C1OC(C)=O` (stereo unspecified), the total growth inhibition concentration (TGI) in the assay with HT29 colon came out at 27.2 µM; with HCT-116 colon, 13.8 µM; in the assay with RPMI-8226 leukemia, 5.18 µM; in the assay on NCI-H23 lung, 25.6 µM; in the assay on HL-60(TB) leukemia, 5.27 µM; in the assay on U251 CNS, 26.8 µM. The figures for the TGI in the assay on UACC-257 melanoma, with SNB-75 CNS and in the assay on NCI/ADR-RES ovarian were 17.1 µM, 33.3 µM and over 100 µM, respectively.

Consider `O=C1C(NCCN2CCOCC2)=C(Cl)C(=O)c2ncccc21`, for which the total growth inhibition concentration (TGI) is 2.95 µM in the assay on HT29 colon; 1.14 µM in the assay with HCT-116 colon; 0.377 µM in the assay on RPMI-8226 leukemia; 2.73 µM in the assay with NCI-H23 lung; 0.168 µM in the assay on HL-60(TB) leukemia; 2.23 µM in the assay with U251 CNS. In addition, the concentration for total growth inhibition (TGI) in the assay on SNB-75 CNS is 2.35 µM; in the assay on DU-145 prostate, 2.17 µM.
